Measured values: ChEMBL document CHEMBL5550179, “Rutaecarpine-inspired scaffold-hopping strategy and Ullmann cross-coupling based synthetic approach: Identification of pyridopyrimidinone-indole based novel anticancer chemotypes” (Bioorg Med Chem, 2024)
Active and inactive are the calls of the source. The rule behind the calls is not given here.

Key:
HL-60 = assay: Antiproliferative activity against human HL-60 cells; type: functional, cell-based
MCF7 [1] = assay: Antiproliferative activity against human MCF7 cells assessed as cell growth inhibition incubated for 48 hrs by MTT assay; type: functional, cell-based; details: for IC50: Homo sapiens, MCF7, 48 h
[2] = Selectivity index, ratio of IC50 for antiproliferative activity against human MCF-10A cells to IC50 for antiproliferative activity against human MCF7 cells; type: toxicity, cell-based; details: MCF-10A cells and MCF7 cells, read-out: Ratio IC50
[3] = Antiproliferative activity against human MCF-10A cells assessed as cell growth inhibition incubated for 48 hrs by MTT assay; type: toxicity, cell-based
A549 [4] = assay: Antiproliferative activity against human A549 cells assessed as cell growth inhibition incubated for 48 hrs by MTT assay; type: functional, cell-based; details: A549, 48 h
HeLa = assay: Antiproliferative activity against human HeLa cells; type: functional, cell-based
[5] = Antiproliferative activity against human MCF-10A cells assessed as cell viability incubated for 48 hrs by MTT assay relative to control; type: toxicity, cell-based; design: concentration or dose not given beside the values; details: read-out: Activity
MCF7 [6] = assay: Inhibition of cell migration in human MCF7 cells assessed as reduction in migration rate incubated upto 48 hrs by scratch wound healing assay; type: functional, cell-based
MCF7 [7] = assay: Antiproliferative activity against human MCF7 cells assessed as reduction in number of colonies incubated for 48 hrs by crystal violet staining based analysis; type: functional, cell-based
HCT-116 [8] = assay: Antiproliferative activity against human HCT-116 cells assessed as cell growth inhibition incubated for 48 hrs by MTT assay; type: functional, cell-based; details: HCT-116, 48 h
MDA-MB-435 = assay: Antiproliferative activity against human MDA-MB-435 cells; type: functional, cell-based
HCT-116 [9] = assay: Antiproliferative activity against human HCT-116 cells; type: functional, cell-based
MGC-803 = assay: Antiproliferative activity against human MGC-803 cells; type: functional, cell-based
A549 [10] = assay: Antiproliferative activity against human A549 cells; type: functional, cell-based
SW480 = assay: Antiproliferative activity against human SW480 cells; type: functional, cell-based
MCF7 [11] = assay: Antiproliferative activity against human MCF7 cells; type: functional, cell-based
Tubulin = assay: Inhibition of tubulin polymerization (unknown origin); type: protein-complex assay, Homo sapiens
NCI-H460 = assay: Antiproliferative activity against human NCI-H460 cells; type: functional, cell-based
ACHN = assay: Antiproliferative activity against human ACHN cells; type: functional, cell-based

## O=c1c2ccccc2nc2n1CCc1c-2[nH]c2c(Cl)c(Cl)ccc12
HL-60
  IC50: 0.15 µM

## O=C(NCCc1c(-c2cc(=O)n3ccccc3n2)[nH]c2ccccc12)c1ccc(Cl)cc1
MCF7 [1]
  IC50: > 20 µM

## COc1ccc2c(c1)c(CCN1C(=O)c3ccccc3C1=O)c(-c1cc(=O)n3ccccc3n1)n2C(=O)OC(C)(C)C
MCF7 [1]
  IC50: > 20 µM

## COc1ccc2[nH]c(-c3cc(=O)n4ccccc4n3)c(CCN3C(=O)c4ccccc4C3=O)c2c1
MCF7 [1]
  IC50: > 20 µM

## O=c1c2ccccc2nc2n1CCc1c-2[nH]c2ccccc12 [RUTAECARPINE]
MCF7 [1]
  IC50: > 20 µM
[2]
  selectivity ratio: 1.2
[3]
  IC50 at 48 h: > 20 µM
A549 [4]
  IC50: > 20 µM
HeLa
  IC50: 26 µM
[5]
  viability at 48 h: 60.2%

## COc1ccc(C(=O)NCCc2c(-c3cc(=O)n4ccccc4n3)n(C(=O)OC(C)(C)C)c3ccccc23)cc1
MCF7 [1]
  IC50: 7.7 µM
[2]
  selectivity ratio: > 3.2
[3]
  IC50 at 48 h: > 20 µM
MCF7 [6]
  inhibition: Active
A549 [4]
  IC50: 18.4 µM
MCF7 [7]
  Activity: Active
HCT-116 [8]
  IC50: 11 µM
[5]
  viability at 48 h: 61.6%

## COc1cc(C(=O)NCCc2c(-c3cc(=O)n4ccccc4n3)[nH]c3ccccc23)cc(OC)c1OC
MCF7 [1]
  IC50: > 20 µM

## O=C(O)c1ccccc1C(=O)NCCc1c(-c2cc(=O)n3ccccc3n2)[nH]c2ccccc12
MCF7 [1]
  IC50: > 20 µM

## O=C1c2cc(Cl)ccc2SC2c3[nH]c4ccc(O)cc4c3CCN12 (centres undefined)
MDA-MB-435
  IC50: < 0.003 µM
HCT-116 [9]
  IC50: < 0.003 µM

## CN1c2ccccc2C(=O)N2CCc3c([nH]c4ccccc34)C21 (centres undefined)
MGC-803
  IC50: 12 µM
A549 [10]
  IC50: 1.3 µM
SW480
  IC50: 10 µM

## O=C1c2ccccc2C(=O)N1CCc1c(-c2cc(=O)n3ccccc3n2)[nH]c2ccccc12
MCF7 [1]
  IC50: > 20 µM

## O=c1cc(-c2ccc(Cl)cc2)nc2ccccn12
MCF7 [11]
  IC50: 1.8 µM

## COc1cc(C2=NN(C(N)=O)C(c3cn(C)c4ccc(Br)cc34)C2)cc(OC)c1OC (centres undefined)
Tubulin
  IC50: 2.12 µM

## COc1ccc2[nH]c(-c3cc(=O)n4ccccc4n3)c(CCNC(=O)c3cc(OC)c(OC)c(OC)c3)c2c1
MCF7 [1]
  IC50: > 20 µM

## O=C(NCCc1c[nH]c2ccccc12)c1ccc(-c2ccccc2)cc1
NCI-H460
  IC50: 2 µM

## CN1c2ccccc2C(=O)N2CCc3c([nH]c4ccc(Cl)cc34)C21 (centres undefined)
MCF7 [11]
  IC50: 1 µM
ACHN
  IC50: 1 µM

## O=c1[nH]cc(F)c(=O)[nH]1 [FLUOROURACIL]
MCF7 [1]; time 48 hrs
  IC5: 6.5 µM
[2]
  selectivity ratio: 3
[3]
  IC50 at 48 h: 19.5 µM
A549 [4]
  IC50: > 20 µM
HCT-116 [8]
  IC50: > 20 µM
[5]
  viability at 48 h: 50%

## O=c1c2cc(Cl)ccc2nc2n1CCc1c-2[nH]c2ccccc12
HeLa
  IC50: 7 µM

## COc1ccc2c(c1)c(CCNC(=O)c1ccc(Cl)cc1)c(-c1cc(=O)n3ccccc3n1)n2C(=O)OC(C)(C)C
MCF7 [1]
  IC50: 14 µM
[2]
  selectivity ratio: > 2.25
[3]
  IC50 at 48 h: > 20 µM
A549 [4]
  IC50: 20 µM
HCT-116 [8]
  IC50: 8.55 µM
[5]
  viability at 48 h: 78.6%

## CC(C)(C)OC(=O)n1c(-c2cc(=O)n3ccccc3n2)c(CCNC(=O)c2ccc(Cl)cc2)c2ccccc21
MCF7 [1]
  IC50: 15.8 µM
[2]
  selectivity ratio: > 2.11
[3]
  IC50 at 48 h: > 20 µM
A549 [4]
  IC50: > 20 µM
HCT-116 [8]
  IC50: > 20 µM
[5]
  viability at 48 h: 83.4%

## COc1ccc(C(=O)NCCc2c(-c3cc(=O)n4ccccc4n3)[nH]c3ccc(OC)cc23)cc1
MCF7 [1]
  IC50: > 20 µM

## COc1ccc2[nH]c(-c3cc(=O)n4ccccc4n3)c(CCNC(=O)c3ccc(Cl)cc3)c2c1
MCF7 [1]
  IC50: > 20 µM

## CC(C)(C)OC(=O)n1c(-c2cc(=O)n3ccccc3n2)c(CCN2C(=O)c3ccccc3C2=O)c2ccccc21
MCF7 [1]
  IC50: > 20 µM
